Data from the supplement of paper PMC10307832.

Experiments:
Test in all cases: relative viability (nuclei count vs DMSO), 5 days (fraction); higher = more cells survive
XMD8-85 + Vorinostat = compound: CN1CCN(CC1)C2=CC(=C(C=C2)NC3=NC=C4C(=N3)N(C5=CC=CC=C5C(=O)N4C)C)OC [XMD8-85] + O=C(CCCCCCC(=O)Nc1ccccc1)NO [Vorinostat] (partner 1 µM)
Summary of the method: (§1)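 Values are medians from duplicate plates. Each reflects relative viability, defined as the nuclei count of treated wells over that of vehicle wells. Lung cancer cell lines in 1536-well plates were pin-tool dosed one day after seeding with one drug alone or with a fixed anchor-drug dose plus five library-drug doses (not always all listed) in √10 steps, then fixed, stained and imaged at 4× after 5 days.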

4EGI-1 + Luminespib = compound: O=C(O)C(Cc1ccccc1[N+](=O)[O-])=NNc1nc(-c2ccc(Cl)c(Cl)c2)cs1 (mixture of isomers) [4EGI-1] + CCNC(=O)c1noc(-c2cc(C(C)C)c(O)cc2O)c1-c1ccc(CN2CCOCC2)cc1 [Luminespib] (partner 0.01 µM)
Summary of the method: as §1

4EGI-1 + Tozasertib = compound: O=C(O)C(Cc1ccccc1[N+](=O)[O-])=NNc1nc(-c2ccc(Cl)c(Cl)c2)cs1 (mixture of isomers) [4EGI-1] + Cc1cc(Nc2cc(N3CCN(C)CC3)nc(Sc3ccc(NC(=O)C4CC4)cc3)n2)n[nH]1 [Tozasertib] (partner 0.1 µM)
Summary of the method: as §1

4EGI-1 + Olaparib = compound: O=C(O)C(Cc1ccccc1[N+](=O)[O-])=NNc1nc(-c2ccc(Cl)c(Cl)c2)cs1 (mixture of isomers) [4EGI-1] + O=C(c1cc(Cc2n[nH]c(=O)c3ccccc23)ccc1F)N1CCN(C(=O)C2CC2)CC1 [Olaparib] (partner 8 µM)
Summary of the method: as §1

Cell Line	relative viability (XMD8-85 + Vorinostat; first compound 0.08 µM)	relative viability (XMD8-85 + Vorinostat; first compound 0.253 µM)	relative viability (XMD8-85 + Vorinostat; first compound 2.53 µM)	relative viability (4EGI-1 + Luminespib; first compound 0.5 µM)	relative viability (4EGI-1 + Luminespib; first compound 1.581 µM)	relative viability (4EGI-1 + Luminespib; first compound 5 µM)	relative viability (4EGI-1 + Luminespib; first compound 15.81 µM)	relative viability (4EGI-1 + Luminespib; first compound 50 µM)	relative viability (4EGI-1 + Tozasertib; first compound 0.5 µM)	relative viability (4EGI-1 + Tozasertib; first compound 1.581 µM)	relative viability (4EGI-1 + Tozasertib; first compound 5 µM)	relative viability (4EGI-1 + Tozasertib; first compound 15.81 µM)	relative viability (4EGI-1 + Tozasertib; first compound 50 µM)	relative viability (4EGI-1 + Olaparib; first compound 0.5 µM)	relative viability (4EGI-1 + Olaparib; first compound 1.581 µM)	relative viability (4EGI-1 + Olaparib; first compound 5 µM)	relative viability (4EGI-1 + Olaparib; first compound 15.81 µM)	relative viability (4EGI-1 + Olaparib; first compound 50 µM)	relative viability (XMD8-85 + Vorinostat; first compound 8 µM)	relative viability (XMD8-85 + Vorinostat; first compound 0.8 µM)
NCI-H2009	0.716	0.774	0.621	1.09	1.08	1.05	0.954	0.994	0.813	0.709	0.784	0.697	0.211	0.768	0.63	0.647	0.421	0.374	–	–
NCI-H2023	0.405	0.835	0.665	0.897	0.544	0.798	0.203	0.0714	0.377	–	0.38	0.259	0.142	0.5	0.306	0.432	0.127	0.0742	0.475	–
NCI-H2085	0.774	0.812	0.756	0.461	0.452	0.468	0.396	0.355	0.835	0.859	0.836	0.724	0.775	0.764	0.72	0.739	0.726	0.374	0.546	0.762
NCI-H2087	0.668	0.967	0.708	0.191	0.139	0.198	0.206	0.135	0.272	0.261	0.227	0.164	0.167	0.633	0.562	0.542	0.278	0.162	0.456	0.806
NCI-H2126	0.772	–	–	0.993	–	0.96	0.855	0.678	1	–	0.861	0.822	0.741	1	0.927	0.858	0.942	0.654	0.553	0.795
NCI-H2170	0.914	0.8	0.877	0.931	0.635	0.778	0.741	0.352	0.829	0.728	0.628	0.617	0.314	0.625	0.541	0.567	0.36	0.189	0.715	0.792
NCI-H2228	0.523	0.59	0.842	0.147	0.148	0.258	0.135	0.17	0.276	0.273	0.248	0.285	0.134	0.947	0.702	0.693	0.536	0.128	0.392	0.585
